Columns and labels:
Esch. coli L47 SKF 12140 = assay: MIC, microbroth dilution; type: cell-based, Escherichia coli; conditions: inocula 10^4 to 10^5 CFU/ml, Iso-Sensitest broth, 18-24 h, 37° C.
Description: (§1) MIC for Propionibacterium aches, and Bacteroides fragilis are determined by agar dilution (inocula 10^4 /10^5 CFU/spot). MIC for other organisms are determined by microbroth dilution (inocula 10^4 to 10^5 CFU/ml). Incubation times are 18-24 h, except for Haemophilus influenzae, P. acnes, B. fragilis (48 h). All organisms are incubated at 37° C.; H. influenzae is incubated in a 5% CO2 atmosphere, anaerobes in an anaerobic gas mixture. Media used are: Iso-Sensitest broth (Oxoid) (Staphylococci, Streptococcus faecalis, Escherichia coli, Proteus vulgaris; brain heart infusion broth (Difco)+1% Supplement C (Difco) (H. influenzae); The minimal inhibitory concentrations (MIC, microgram/ml) for some microorganisms are reported below in Table VII.

Prot. vulgaris ATCC 881 = assay: MIC, microbroth dilution; type: cell-based, Proteus vulgaris; conditions: inocula 10^4 to 10^5 CFU/ml, Iso-Sensitest broth, 18-24 h, 37° C.
Description: as §1

[1] = tested on: Bact. fragilis L1010 ATCC 23745; assay: MIC, agar dilution; type: cell-based, Bacteroides fragilis; conditions: inocula 10^4 /10^5 CFU/spot, 48 h, 37° C., anaerobic gas mixture
Description: as §1

[2] = tested on: Strep. faecalis L149 ATCC 7080; assay: MIC, microbroth dilution; type: cell-based, Streptococcus faecalis; conditions: inocula 10^4 to 10^5 CFU/ml, Iso-Sensitest broth, 18-24 h, 37° C.
Description: as §1

[3] = tested on: Prop. acnes L1014 ATCC 6919; assay: MIC, agar dilution; type: cell-based, P. acnes; conditions: inocula 10^4 /10^5 CFU/spot, 48 h, 37° C., anaerobic gas mixture
Description: as §1

[4] = tested on: Staph. epidermidis L147 ATCC 12228; assay: MIC, microbroth dilution; type: cell-based; conditions: inocula 10^4 to 10^5 CFU/ml, Iso-Sensitest broth, 18-24 h, 37° C.
Description: as §1

[5] = tested on: Strep. pneumoniae L44 UC41; assay: MIC, microbroth dilution; type: cell-based; conditions: inocula 10^4 to 10^5 CFU/ml, 18-24 h, 37° C.
Description: as §1

Staph. haemolyticus L602 = assay: MIC, microbroth dilution; type: cell-based; conditions: inocula 10^4 to 10^5 CFU/ml, Iso-Sensitest broth, 18-24 h, 37° C.
Description: as §1

[6] = tested on: Haemophilus Influenzae type B; assay: MIC, microbroth dilution; type: cell-based; conditions: brain heart infusion broth +1% Supplement C, 48 h, 37° C., 5% CO2
Description: as §1

Staph. aureus L165 Tour = assay: MIC, microbroth dilution; type: cell-based; conditions: inocula 10^4 to 10^5 CFU/ml, Iso-Sensitest broth, 18-24 h, 37° C.
Description: as §1

Row | SMILES | MIC (Esch. coli L47 SKF 12140) [microgram/ml] | MIC (Prot. vulgaris ATCC 881) [microgram/ml] | MIC [1] [microgram/ml] | MIC [2] [microgram/ml] | MIC [3] [microgram/ml] | MIC [4] [microgram/ml] | MIC [5] [microgram/ml] | MIC (Staph. haemolyticus L602) [microgram/ml] | MIC [6] [microgram/ml] | MIC (Staph. aureus L165 Tour) [microgram/ml]
1 | CNC(=O)CC1NC(=O)c2nc(sc2COC)C(C(C)C)NC(=O)c2csc(n2)-c2ccc(-c3nc(C(=O)NCC(=O)O)cs3)nc2-c2csc(n2)-c2csc(n2)C(C(O)c2ccccc2)NC(=O)CNC(=O)c2nc1sc2C (stereo not shown) [Compound 1] | > 128 | > 128 | 8 | 0.25 | < 0.13 | 1 | 8 | 4 | 8 | 0.5
2 | CNC(=O)CC1NC(=O)c2nc(sc2COC)C(C(C)C)NC(=O)c2csc(n2)-c2ccc(-c3nc(C(=O)NC(CCCN)C(=O)O)cs3)nc2-c2csc(n2)-c2csc(n2)C(C(O)c2ccccc2)NC(=O)CNC(=O)c2nc1sc2C.O=C(O)C(F)(F)F (stereo not shown) [Compound 2] | > 128 | > 128 | > 128 | 0.06 | 0.06 | 0.25 | > 128 | 16 | > 128 | 0.13
3 | CNC(=O)CC1NC(=O)c2nc(sc2COC)C(C(C)C)NC(=O)c2csc(n2)-c2ccc(-c3nc(C(=O)NC(CC(C)C)C(=O)O)cs3)nc2-c2csc(n2)-c2csc(n2)C(C(O)c2ccccc2)NC(=O)CNC(=O)c2nc1sc2C (stereo not shown) [Compound 6] | > 128 | > 128 | > 128 | < 0.13 | < 0.13 | 1 | 2 | 1 | 32 | < 0.13
4 | CNC(=O)CC1NC(=O)c2nc(sc2COC)C(C(C)C)NC(=O)c2csc(n2)-c2ccc(-c3nc(C(=O)NC(Cc4ccccc4)C(=O)O)cs3)nc2-c2csc(n2)-c2csc(n2)C(C(O)c2ccccc2)NC(=O)CNC(=O)c2nc1sc2C (stereo not shown) [Compound 7] | > 128 | > 128 | > 128 | > 0.13 | < 0.13 | 0.5 | 4 | 4 | 128 | 0.25
5 | CNC(=O)CC1NC(=O)c2nc(sc2COC)C(C(C)C)NC(=O)c2csc(n2)-c2ccc(-c3nc(C(=O)NC(CCSC)C(=O)O)cs3)nc2-c2csc(n2)-c2csc(n2)C(C(O)c2ccccc2)NC(=O)CNC(=O)c2nc1sc2C (stereo not shown) [Compound 8] | > 128 | > 128 | 32 | 0.25 | < 0.13 | 2 | 4 | 2 | 64 | 0.25
6 | CNC(=O)CC1NC(=O)c2nc(sc2COC)C(C(C)C)NC(=O)c2csc(n2)-c2ccc(-c3nc(C(=O)NCC(=O)N4CCCC4C(N)=O)cs3)nc2-c2csc(n2)-c2csc(n2)C(C(O)c2ccccc2)NC(=O)CNC(=O)c2nc1sc2C (stereo not shown) [Compound 14] | > 128 | > 128 | > 128 | 0.06 | 0.03 | 0.13 | > 128 | 0.25 | > 128 | 0.06
7 | CNC(=O)CC1NC(=O)c2nc(sc2COC)C(C(C)C)NC(=O)c2csc(n2)-c2ccc(-c3nc(C(=O)NCCCC(=O)O)cs3)nc2-c2csc(n2)-c2csc(n2)C(C(O)c2ccccc2)NC(=O)CNC(=O)c2nc1sc2C (stereo not shown) [Compound 18] | > 128 | > 128 | 2 | 0.13 | 0.016 | 0.25 | 1 | 1 | 2 | 0.25
8 | CNC(=O)CC1NC(=O)c2nc(sc2COC)C(C(C)C)NC(=O)c2csc(n2)-c2ccc(-c3nc(C(=O)NCCCCCC(=O)O)cs3)nc2-c2csc(n2)-c2csc(n2)C(C(O)c2ccccc2)NC(=O)CNC(=O)c2nc1sc2C (stereo not shown) [Compound 19] | > 128 | > 128 | 4 | 0.06 | 0.008 | 0.06 | 0.25 | 0.25 | 2 | 0.06
9 | CNC(=O)CC1NC(=O)c2nc(sc2COC)C(C(C)C)NC(=O)c2csc(n2)-c2ccc(-c3nc(C(=O)NCCCCCCCC(=O)O)cs3)nc2-c2csc(n2)-c2csc(n2)C(C(O)c2ccccc2)NC(=O)CNC(=O)c2nc1sc2C (stereo not shown) [Compound 20] | > 128 | > 128 | > 128 | < 0.13 | 0.03 | 0.25 | 2 | 0.25 | > 128 | 0.25
10 | CNC(=O)CC1NC(=O)c2nc(sc2COC)C(C(C)C)NC(=O)c2csc(n2)-c2ccc(-c3nc(C(=O)NCCN(C)C)cs3)nc2-c2csc(n2)-c2csc(n2)C(C(O)c2ccccc2)NC(=O)CNC(=O)c2nc1sc2C (stereo not shown) [Compound 32] | > 128 | > 128 | > 128 | 0.25 | 0.13 | 0.5 | 1 | 0.5 | > 128 | 0.5
11 | CNC(=O)CC1NC(=O)c2nc(sc2COC)C(C(C)C)NC(=O)c2csc(n2)-c2ccc(-c3nc(C(N)=O)cs3)nc2-c2csc(n2)-c2csc(n2)C(C(O)c2ccccc2)NC(=O)CNC(=O)c2nc1sc2C (stereo not shown) [Compound 35] | > 128 | > 128 | > 128 | 0.06 | 0.004 | 0.13 | > 128 | 0.5 | > 128 | 0.13
12 | CNC(=O)CC1NC(=O)c2nc(sc2COC)C(C(C)C)NC(=O)c2csc(n2)-c2ccc(-c3nc(C(=O)NCCCN)cs3)nc2-c2csc(n2)-c2csc(n2)C(C(O)c2ccccc2)NC(=O)CNC(=O)c2nc1sc2C.O=C(O)C(F)(F)F (stereo not shown) [Compound 36] | > 128 | > 128 | > 128 | 0.13 | 0.06 | 0.13 | 4 | 0.13 | > 128 | 0.13
13 | CNC(=O)CC1NC(=O)c2nc(sc2COC)C(C(C)C)NC(=O)c2csc(n2)-c2ccc(-c3nc(C(=O)NCC=O)cs3)nc2-c2csc(n2)-c2csc(n2)C(C(O)c2ccccc2)NC(=O)CNC(=O)c2nc1sc2C (stereo not shown) [Compound 37] | > 128 | > 128 | > 128 | 0.06 | 0.004 | 0.06 | > 128 | 0.13 | > 128 | 0.03
14 | CNC(=O)CC1NC(=O)c2nc(sc2COC)C(C(C)C)NC(=O)c2csc(n2)-c2ccc(-c3nc(C(=O)NCCCC=CC(=O)O)cs3)nc2-c2csc(n2)-c2csc(n2)C(C(O)c2ccccc2)NC(=O)CNC(=O)c2nc1sc2C (stereo not shown) [Compound 40] | > 128 | > 128 | 4 | ≤ 0.13 | – | 0.25 | 1 | 1 | 1 | 0.25

— patent publication US5599791A, “Amides of antibiotic GE 2270 factors” (Gruppo Lepetit SPA, priority 1991, dated 1997)
